Among the data in patent publication US8133909B2 (Hoffmann-La Roche Inc., priority 2008, dated 2012) are Kb values, retold here.

This assay has as its target T1, human orexin-2 (hOX2) receptors (Homo sapiens, UniProt O43614).
T1 construct: expressed in transfected cells
T1 sequence (O43614 1-444): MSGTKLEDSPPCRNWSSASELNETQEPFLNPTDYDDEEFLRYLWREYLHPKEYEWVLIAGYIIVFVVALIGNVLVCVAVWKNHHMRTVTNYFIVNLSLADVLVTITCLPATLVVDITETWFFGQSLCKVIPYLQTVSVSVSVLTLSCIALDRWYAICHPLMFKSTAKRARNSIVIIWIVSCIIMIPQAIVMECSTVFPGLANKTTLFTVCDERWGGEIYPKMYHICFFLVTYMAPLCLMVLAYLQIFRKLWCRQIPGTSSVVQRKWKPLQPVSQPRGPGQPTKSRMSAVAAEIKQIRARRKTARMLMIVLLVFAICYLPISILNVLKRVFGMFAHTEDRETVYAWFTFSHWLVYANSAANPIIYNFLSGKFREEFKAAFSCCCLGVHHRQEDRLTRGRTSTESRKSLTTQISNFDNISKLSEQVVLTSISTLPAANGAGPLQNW
The assay is described as follows: Intracellular Ca2+ mobilization assay (FLIPR), antagonism of orexin-A. The settings on record: CHO(dHFr-) cells stably expressing hOX2; orexin-A at EC80 as agonist; antagonist applied 25 min before; Kb=IC50/(1+[A]/EC50); read-out: Kb (μM) OX2R (human). The format is cell-based. The procedure: Intracellular Ca^2+ Mobilization Assay
The Chinese Hamster Ovary (dHFr—) mutant cell line stably expressing human orexin-1 (hOX1) or human orexin-2 (hOX2) receptors were maintained in Dulbecco's Modified Eagle Medium (1X) with GlutaMax™ 1, 4500 mg/L D-Glucose and Sodium Pyruvate (Catalog No. 31966-021, Invitrogen, Carlsbad, Calif.), 5% dialyzed fetal calf serum (Catalog No. 26400-044), 100 μg/ml penicillin and 100 μg/ml streptomycin. The cells were seeded at 5×10^4 cells/well in the poly-D-lysine treated, 96-well, black/clear-bottomed plates (Catalog No. BD356640, BD Biosciences, Palo Alto, Calif.). 24 h later, the cells were loaded for 1 h at 37° C. with 4 μM Flou-4 acetoxymethyl ester (Catalog No. F-14202, Molecular Probes, Eugene, Oreg.) in FLIPR buffer (1×HBSS, 20 mM HEPES, 2.5 mM Probenecid). Hanks' Balanced Salt Solution (HBSS) (10×) (catalog No. 14065-049) and HEPES (1M) (catalog No. 15630-056) were purchased from Invitrogen, Carlsbad, Calif. Probenecid (250 mM) (catalog No. P8761) was from Sigma, Buchs, Switzerland. The cells were washed five times with FLIPR buffer to remove excess dye and intracellular calcium mobilization, [Ca^2+]i were measured using a Fluorometric Imaging Plate Reader (FLIPR-96, Molecular Devices, Menlo Park, Calif.) as described previously (Malherbe et al., Mol. Pharmacol., 64, 823-832, 2003). Orexin A (catalog No. 1455, Toris Cookson Ltd, Bristol, UK) was used as agonist. Orexin A (50 mM stock solution in DMSO) was diluted in FLIPR buffer +0.1% BSA. The EC50 and EC80 values of orexin-A were measured daily from standard agonist concentration-response curves in CHO(dHFr—)—OX1R and —OX2R cell lines. All compounds were dissolved in 100% DMSO. Inhibition curves were determined by addition of 11 concentrations (0.0001-10 μM) of inhibitory compounds and using EC80 value of orexin-A as agonist (a concentration which gave 80% of max agonist response, determined daily). The antagonists were applied 25 min (incubation at 37° C.) before the application of the agonist. Responses were measured as peak increase in fluorescence minus basal, normalized to the maximal stimulatory effect induced by EC80 value of orexin-A or orexin- B. Inhibition curves were fitted according to the Hill equation: y=100/(1+(x/IC50)^nH), where nH=slope factor using Excel-fit 4 software (Microsoft). Kb values were calculated according to the following equation Kb=IC50/(1+[A]/EC50) where A is the concentration of agonist added which is very close to agonist EC80 value, and IC50 and EC50 values were derived from the antagonist inhibition and orexin-A or B agonist curves, respectively.
For `Cc1ccc(N(CCc2ccc(C(F)(F)F)nc2)C(=O)C(C)(O)c2ccccc2)cc1C` (racemic) [Example 27, (R,S)—N-(3,4-Dimethyl-phenyl)-2-hydroxy-2-phenyl-N-[2-(6-trifluoromethyl-pyridin-3-yl)-ethyl]-propionamide], the Kb turned out to be 0.068 µM.
As for `Cc1ccc(CCN(C(=O)C(N)c2ccc(Cl)cc2)c2sc(C)nc2C)cc1` (racemic) [Example 32, (R,S)-2-Amino-2-(4-chloro-phenyl)-N-(2,4-dimethyl-thiazol-5-yl)-N-(2-p-tolyl-ethyl)-acetamide], the antagonist dissociation constant (Kb) was 0.0943 µM.
Regarding `COc1ccc(N(CCc2ccc(C(F)(F)F)cc2)C(=O)C(N)c2ccccc2)cn1` (racemic) [Example 36, (R,S)-2-Amino-N-(6-methoxy-pyridin-3-yl)-2-phenyl-N-[2-(4-trifluoromethyl-phenyl)-ethyl]-acetamide], the antagonist equilibrium constant (Kb) stood at 0.061 µM.
As to `Cc1cc(N(CCc2ccc(C(F)(F)F)cc2)C(=O)C(N)c2ccc(Cl)cc2)n(C)n1` (racemic) [Example 39, (R,S)-2-Amino-2-(4-chloro-phenyl)-N-(2,5-dimethyl-2H-pyrazol-3-yl)-N-[2-(4-trifluoromethyl-phenyl)-ethyl]-acetamide], the Kb was 0.0439 µM.
The figure for `Cc1cc(N(CCc2ccc(C(F)(F)F)cc2)C(=O)C(O)c2ccccc2)n(C)n1` (racemic) [Example 42, (R,S)—N-(2,5-Dimethyl-2H-pyrazol-3-yl)-2-hydroxy-2-phenyl-N-[2-(4-trifluoromethyl-phenyl)-ethyl]-acetamide] is 0.0785 µM; for `Cn1ccc2ccc(N(CCc3ccc(C(F)(F)F)cn3)C(=O)C(O)c3ccc(F)cc3)cc21` (racemic) [Example 54, (R,S)-2-(4-Fluoro-phenyl)-2-hydroxy-N-(1-methyl-1H-indol-6-yl)-N-[2-(5-trifluoromethyl-pyridin-2-yl)-ethyl]-acetamide] it is 0.0078 µM.
To `O=C([C@H](O)c1ccc(F)cc1)N(CCc1ccc(C(F)(F)F)cn1)c1ccc2c(c1)CCC2` (racemic) [Example 73, (R,S)-2-(4-Fluoro-phenyl)-2-hydroxy-N-indan-5-yl-N-[2-(5-trifluoromethyl-pyridin-2-yl)-ethyl]-acetamide] belongs 0.0313 µM; to `O=C(C(O)c1ccc(F)cc1)N(CCc1ccc(C(F)(F)F)cn1)c1ccc2c(c1)CCO2` (racemic) [Example 75, (R,S)—N-(2,3-Dihydro-benzofuran-5-yl)-2-(4-fluoro-phenyl)-2-hydroxy-N-[2-(5-trifluoromethyl-pyridin-2-yl)-ethyl]-acetamide], 0.013 µM.
To `COc1cccc(N(CCc2ccc(C(F)(F)F)cn2)C(=O)C(O)c2ccc(F)cc2)c1` (racemic) [Example 76, (R,S)-2-(4-Fluoro-phenyl)-2-hydroxy-N-(3-methoxy-phenyl)-N-[2-(5-trifluoromethyl-pyridin-2-yl)-ethyl]-acetamide] belongs 0.026 µM; to `Cc1cc(N(CCc2ccc(C(F)(F)F)cn2)C(=O)C(O)c2ccc(F)cc2)ccc1F` (racemic) [Example 77, (R,S)—N-(4-Fluoro-3-methyl-phenyl)-2-(4-fluoro-phenyl)-2-hydroxy-N-[2-(5-trifluoromethyl-pyridin-2-yl)-ethyl]-acetamide], 0.0075 µM.
With `Cc1ccc(N(CCc2ccc(C(F)(F)F)cn2)C(=O)C(O)c2ccc(F)cc2)cc1F` (racemic) [Example 78, (R,S)—N-(3-Fluoro-4-methyl-phenyl)-2-(4-fluoro-phenyl)-2-hydroxy-N-[2-(5-trifluoromethyl-pyridin-2-yl)-ethyl]-acetamide], the Kb came out at 0.0481 µM.
Turning to `COc1cc(N(CCc2ccc(C(F)(F)F)cn2)C(=O)C(O)c2ccc(F)cc2)ccc1Cl` (racemic) [Example 79, (R,S)—N-(4-Chloro-3-methoxy-phenyl)-2-(4-fluoro-phenyl)-2-hydroxy-N-[2-(5-trifluoromethyl-pyridin-2-yl)-ethyl]-acetamide], the Kb was 0.0236 µM.
`COc1cc(N(CCc2ccc(C(F)(F)F)cn2)C(=O)C(O)c2ccc(F)cc2)ccc1F` (racemic) [Example 88, (R,S)—N-(4-Fluoro-3-methoxy-phenyl)-2-(4-fluoro-phenyl)-2-hydroxy-N-[2-(5-trifluoromethyl-pyridin-2-yl)-ethyl]-acetamide]: the antagonist equilibrium constant (Kb) stood at 0.0106 µM.
As to `O=C(C(O)c1ccc(F)cc1)N(CCc1ccc(C(F)(F)F)cn1)c1ccc(F)c(CO)c1` (racemic) [Example 90, (R,S)—N-(4-Fluoro-3-hydroxymethyl-phenyl)-2-(4-fluoro-phenyl)-2-hydroxy-N-[2-(5-trifluoromethyl-pyridin-2-yl)-ethyl]-acetamide], the Kb was determined as 0.0438 µM.
Turning to `COc1ccc(N(CCc2ccc(C(F)(F)F)cn2)C(=O)C(O)c2ccc(F)cc2)cc1C` (racemic) [Example 93, (R,S)-2-(4-Fluoro-phenyl)-2-hydroxy-N-(4-methoxy-3-methyl-phenyl)-N-[2-(5-trifluoromethyl-pyridin-2-yl)-ethyl]-acetamide], the Kb is 0.0146 µM.
To `Cc1ccc(N(CCc2ccc(C(F)(F)F)cn2)C(=O)C(O)c2ccc(F)cc2)cc1OC(F)F` (racemic) [Example 95, (R,S)-N-(3-Difluoromethoxy-4-methyl-phenyl)-2-(4-fluoro-phenyl)-2-hydroxy-N-[2-(5-trifluoromethyl-pyridin-2-yl)-ethyl]-acetamide] belongs 0.0195 µM.
For the compound `O=C(C(O)c1ccc(F)cc1)N(CCc1ccc(C(F)(F)F)cn1)c1ccc(OC(F)F)c(OC(F)F)c1` (racemic) [Example 96, (R,S)—N-(3,4-Bis-difluoromethoxy-phenyl)-2-(4-fluoro-phenyl)-2-hydroxy-N-[2-(5-trifluoromethyl-pyridin-2-yl)-ethyl]-acetamide], the Kb amounted to 0.0216 µM.
To `CCc1cc(N(CCc2ccc(C(F)(F)F)cn2)C(=O)C(O)c2ccc(F)cc2)ccc1Cl` (racemic) [Example 97, (R,S)-N-(4-Chloro-3-ethyl-phenyl)-2-(4-fluoro-phenyl)-2-hydroxy-N-[2-(5-trifluoromethyl-pyridin-2-yl)-ethyl]-acetamide] belongs 0.0276 µM; to `O=C(C(O)c1ccc(F)cc1)N(CCc1ccc(C(F)(F)F)cn1)c1ccc(Cl)c(CO)c1` (racemic) [Example 98, (R,S)—N-(4-Chloro-3-hydroxymethyl-phenyl)-2-(4-fluoro-phenyl)-2-hydroxy-N-[2-(5-trifluoromethyl-pyridin-2-yl)-ethyl]-acetamide], 0.0216 µM; to `COC(=O)c1cc(N(CCc2ccc(C(F)(F)F)cn2)C(=O)C(O)c2ccc(F)cc2)ccc1Cl` (racemic) [Example 99, (R,S)-2-Chloro-5-{[2-(4-fluoro-phenyl)-2-hydroxy-acetyl]-[2-(5-trifluoromethyl-pyridin-2-yl)-ethyl]-amino}-benzoic acid methyl ester], 0.0285 µM.
The figure for `O=C(C(O)c1ccc(F)cc1)N(CCc1ccc(C(F)(F)F)cn1)c1ccc(Cl)c(OC2CC2)c1` (racemic) [Example 103, (R,S)—N-(4-Chloro-3-cyclopropoxy-phenyl)-2-(4-fluoro-phenyl)-2-hydroxy-N-[2-(5-trifluoromethyl-pyridin-2-yl)-ethyl]-acetamide] is 0.0239 µM; for `O=C([C@@H](O)c1ccc(F)cc1)N(CCc1ccc(C(F)(F)F)nc1)c1ccc2c(c1)C(O)CCO2` (single isomer, unassigned) [Example 101, (S)-2-(4-Fluoro-phenyl)-2-hydroxy-N—((R or S)-4-hydroxy-chroman-6-yl)-N-[2-(6-trifluoromethyl-pyridin-3-yl)-ethyl]-acetamide] it is 0.0116 µM.

For orientation: Kb means the affinity of an antagonist, worked out from how it opposes an agonist.
